Test results taken from patent publication US6846933B1, “Antimycobacterial compounds and method for making the same” (priority 2000, dated 2005).
In brackets after ≈: the same amount, converted by molar mass. Like-named read-outs stand apart in the source and are kept apart here.

How the values were obtained:
[1] = system: M. tuberculosis strain resistant to rifampin (ATCC 35838); assay: microbe, parasite or virus in culture; type: cell-based; settings: Mycobacterium tuberculosis
[2] = system: M. tuberculosis strain resistant to isoniazid (ATCC 35822); assay: microbe, parasite or virus in culture; type: cell-based; settings: Mycobacterium tuberculosis
[3] = ATCC35838, read-out: MIC RMP-R (ug/ml)
[4] = ATCC35822, read-out: MIC INH-R (ug/ml)

Compound | MIC [1, 3] | MIC [2, 4] | MIC ([1]; ATCC35838, read-out: MIC of RMP vs RMP-R (Comment, Table 9)) | MIC ([2]; ATCC35822, read-out: MIC of RMP vs INH-R (Comment, Table 9))
CC(C)=CCCC(C)C/C=N/NC(=O)c1ccncc1 (stereo not shown) [Sample ID 102044] | < 0.1 µg/mL | 3.13 µg/mL (≈ 11.4 µM) |  | 
O=C(N/N=C/C=C(c1ccccc1)c1ccccc1)c1ccncc1 [Sample ID 132532] | 0.1 µg/mL (≈ 0.305 µM) | > 3.2 µg/mL |  | 
CC1C/C(=N/NC(=O)c2ccncc2)CC(C)(C)C1 (stereo not shown) [Sample ID 114353] | < 0.1 µg/mL | < 6.25 µg/mL |  | 
COc1ccc(/C=N/NC(=O)c2ccncc2)cc1 [Sample ID 102866] | < 0.05 µg/mL | 3.25 µg/mL (≈ 12.7 µM) |  | 
CO[C@H]1/C=C/O[C@@]2(C)Oc3c(C)c(O)c4c(O)c(c(/C=N/N5CCN(C)CC5)c(O)c4c3C2=O)NC(=O)/C(C)=C\C=C\[C@H](C)[C@H](O)[C@@H](C)[C@@H](O)[C@@H](C)[C@H](OC(C)=O)[C@@H]1C [RMP, rifampin, reference compound] |  |  | > 8 µg/mL | 0.5 µg/mL
CCOC(=O)/C(CCc1ccccc1)=N\NC(=O)c1ccncc1 [Sample ID 132358] | 0.1 µg/mL (≈ 0.307 µM) | > 3.2 µg/mL |  | 
O=C(N/N=C/c1cc(Cl)ccc1Cl)c1ccncc1 [Sample ID 117150] | < 0.05 µg/mL | > 3.25 µg/mL |  | 
O=C(NN=C1CCCC1)c1ccncc1 [Sample ID 111298] | 0.05 µg/mL (≈ 0.246 µM) | > 0.75 µg/mL |  | 
